Test results reported in US8226989B2, “Anti-adipocyte fatty acid-binding protein (AP2), anti-flap and anti-CySLT1 receptor herbal compositions” (Laila Impex, priority 2008, dated 2012).

Tested on: adipocyte fatty acid-binding protein aP2
Test: aP2 protein expression in LPS induced THP-1 monocyte-macrophage cells (immuno-western blot)
Assay type: cell-based, human
Conditions: THP-1 cells pre-treated 2 h, then LPS; extracts 5 or 10 μg/ml, 5-Loxin 5 μg/ml, montelukast 1 μM, NDGA 10 μM
Description: In this experiment, THP-1 human monocyte-macrophage cells were pre-treated with 5 or 10 μg/ml of each ingredient for 2 h and thereafter printed with LPS to induce the inflammatory response. The cellular proteins were extracted by cell lysis buffer and subjected to Immuno-Western blot to detect the modulation of expression of aP2 protein.
The cellular proteins were extracted by cell lysis buffer and subjected to immuno-western blot to detect the modulation of expression of aP2 protein.
Similar experiment was also conducted on Aegle marmelos, Zingiber officinale and G. mangostana extracts.

Structure (SMILES): CC(Cc1ccc(O)c(O)c1)C(C)Cc1ccc(O)c(O)c1 (stereo not shown) [NDGA, Nordihydroguaiaretic Acid]
- inhibition of LPS induced aP2 protein expression: significantly reduced
